Data from patent US8071606B2, “Substituted pyrazinone amides useful for activation of glucokinase” (Pfizer Inc., priority 2009, dated 2011).

Tests used:
[1] = molecular target: T1, recombinant human glucokinase (beta cell isoform, His-tagged) (Homo sapiens, UniProt P35557); test: Assay 1: activator potency and maximum activation at 5 mM glucose (coupled PK/LDH, NADH depletion, A340); format: biochemical; details: for Emax: % Maximum Activation=(Va/Vo−1)×100; for EC50: glucokinase activation, pH 7.1, room temperature
T1 construct: Full-length glucokinase (beta cell isoform) was His-tagged at the N-terminus; His tag (N); made in house; host or cells: E. coli BL21(DE3), pBCGK vector
T1 sequence (P35557 1-465): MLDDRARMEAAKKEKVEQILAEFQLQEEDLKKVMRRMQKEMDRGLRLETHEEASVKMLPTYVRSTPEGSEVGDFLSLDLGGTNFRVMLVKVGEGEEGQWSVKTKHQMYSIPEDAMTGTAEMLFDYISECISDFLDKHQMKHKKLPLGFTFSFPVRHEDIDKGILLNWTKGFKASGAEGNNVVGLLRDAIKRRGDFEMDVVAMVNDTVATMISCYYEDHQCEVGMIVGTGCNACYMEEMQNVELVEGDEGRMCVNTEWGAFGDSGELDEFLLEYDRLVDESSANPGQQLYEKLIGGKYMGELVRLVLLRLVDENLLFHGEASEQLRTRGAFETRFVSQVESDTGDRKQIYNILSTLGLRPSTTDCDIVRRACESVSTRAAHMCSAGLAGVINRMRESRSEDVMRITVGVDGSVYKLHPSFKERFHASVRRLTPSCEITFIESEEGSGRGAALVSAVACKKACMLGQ
Protocol: (§1) Representative compounds of this invention were evaluated in biochemical assays (Assay 1 or Assay 2) to characterize their glucokinase activation properties. The recombinant human glucokinase protein utilized in both assays was prepared and purified as described below. • Beta Cell Glucokinase His-Tag Growth and Induction Conditions: BL21(DE3) cells (Invitrogen Corporation, Carlsbad, Calif.) containing pBCGK (C or N His) vector were grown at 37° C. (in 2XYT) until the OD600 was between 0.6-1.0. Expression was induced by addition of isopropylthiogalactoside to a final concentration of 0.1-0.2 mM to the cells which were then incubated overnight at 23° C. The next day, cells were harvested via centrifugation at 5000 rpm for 15 minutes at 4° C. The cell pellet was stored at −80° C. for future purification. • Beta Cell Glucokinase His-Tag Purification Conditions: A Ni-NTA (Quigan, Germantown, Md.) column (15-50 mL) was used for separation. Two buffers were prepared, 1) a lysis/nickel equilibration and wash buffer and 2) a nickel elution buffer. The lysis/equilibration/wash buffer was prepared as such: 25 mM HEPES buffer at pH 7.5, 250 mM NaCl, 20 mM imidazole, and 14 mM […] as final concentrations. The elution buffer was prepared as such: 25 mM HEPES at pH 7.5, 250 mM NaCl, 400 mM imidazole, and 14 mM β-mercaptoethanol as final concentrations. The buffers were each filtered with a 0.22 μm filter prior to use. The cell pellet (1 L culture) was resuspended in 300 mL of the lysis/equilibration buffer. The cells were then lysed (3 times) with a Microfluidics Model 110Y microfluidizer (Microfluidics Corporation, Newton, Mass.). The slurry was centrifuged with a Beckman Coulter Model LE-80K ultracentrifuge (Beckman Coulter, Fullerton, Calif.) at 40,000 rpm for 45 minutes at 4° C. The supernatant was transferred to a chilled flask. A volume of 20 μl was saved for gel analysis. A Pharmacia AKTA (GMI, Inc., Ramsey, Minn.) purification system was used for separation. The prime lines were purged with lysis/equilibration buffer. The Ni-NTA column was equilibrated with 200 mL of the lysis/equilibration buffer at a flow rate of 5 mL/minute. The supernantant was loaded over the column at 4 mL/minute and the flow-through was collected in a flask. The unbound proteins were washed with lysis/equilibration buffer at a flow rate of 5 mL/minute until the ultraviolet reaches baseline. The protein was then eluted from the column with the imidazole elution buffer via imidazole gradient 20 mM to 400 mM over 320 mL. The column was then stripped of any additional protein with 80 mL of the elution buffer. The elution fractions were each 8 mL, for a total yield of 50 samples. Fractions were analyzed by sodium dodecyl sulfate polyacrylamide (SDS-PAGE) and the fractions containing protein of interest were pooled and concentrated to 10 mL using ultrafiltration cell with a 10,000 molecular weight cut-off (MWCO) Millipore membrane (Sigma-Aldrich, St. Louis, Mo.) under nitrogen gas (60 psi). Protein was further purified by size exclusion chromatography (SEC) using a […] (320 mL) (Amersham Pharmacia, Uppsala, Sweden). SEC was equilibrated with 450 mL sizing buffer containing 25 mM HEPES pH 7.0, 50 mM NaCl, and 5 mM dithiothreitol. Concentrated protein was then loaded over SEC and elution with 400 mL sizing buffer was performed overnight at 0.5 mL/minute. The elution fractions were 5 mL each. The fractions were analyzed by SDS-PAGE and protein containing fractions were pooled. Concentration was measured using Bradford Assay/BSA Standard. Purified protein was stored in small aliquots at −80° C. Assay 1: Evaluating Activator Potency and Maximum Activation at 5 mM Glucose
Full-length glucokinase (beta cell isoform) was His-tagged at the N-terminus and purified by a Ni column followed by size exclusion chromatography as described above. […]

[2] = molecular target: T2, recombinant human glucokinase (Homo sapiens, UniProt P35557); test: Assay 2: activator potency in a matrix assay at multiple glucose concentrations (22 compound x 16 glucose concentrations); format: biochemical; details: concentration of compound affording a 50% reduction in the enzyme's Km for glucose, read-out: Intrinsic EC50
T2 construct: His tag; made in house; host or cells: E. coli BL21(DE3), pBCGK vector
T2 sequence (P35557 1-465): T1 sequence (P35557 1-465)
Protocol: as §1, with “Concentrated protein was then loaded over SEC and elution with 400 mL sizing buffer was performed overnight at 0.5 mL/minute. The elution fractions were 5 mL each.” left out, “Purified protein was stored in small aliquots at −80° C. Assay 1: Evaluating Activator Potency and Maximum Activation at 5 mM Glucose” left out

Emax [1] [%]	EC50 [1] [µM]	EC50 [2] [nM]	Compound
100	64		Cc1ccc(NC(=O)[C@H](CC2CCOCC2)n2cc(C(F)(F)F)ncc2=O)nc1 [Example 1, (S)-N-(5-methylpyridin-2-yl)-2-(2-oxo-5-(trifluoromethyl)pyrazin-1(2H)-yl)-3-(tetrahydro-2H-pyran-4-yl)propanamide]
117	0.453		O=C(O)c1ccc(NC(=O)[C@H](CC2CCCC2)n2cc(C(F)(F)F)ncc2=O)nc1 [Example 2, (S)-6-(3-cyclopentyl-2-(2-oxo-5-(trifluoromethyl)pyrazin-1(2H)-yl)propanamido)nicotinic acid]
139 to 143	5.6 to 7.1		O=C(Nc1cnccn1)[C@H](CC1CCCC1)n1cc(C(F)(F)F)ncc1=O [Example 3, (S)-3-cyclopentyl-2-(2-oxo-5-(trifluoromethyl)pyrazin-1(2H)-yl)-N-(pyrazin-2-yl)propanamide]
99 to 100	0.27 to 0.37		Cc1ccc(NC(=O)[C@H](CC2CCCC2)n2cc(C(F)(F)F)ncc2=O)nc1 [Example 4, (S)-3-cyclopentyl-N-(5-methylpyridin-2-yl)-2-(2-oxo-5-(trifluoromethyl)pyrazin-1(2H)-yl)propanamide]
		220 to 310	O=C(O)c1ccc(NC(=O)[C@H](CC2CCCCC2)n2cc(C(F)(F)F)ncc2=O)nc1 [Example 5, (S)-6-(3-cyclohexyl-2-(2-oxo-5-(trifluoromethyl)pyrazin-1(2H)-yl)propanamido)nicotinic acid]
		8900	O=C(O)c1ccc(NC(=O)[C@H](CC2CCOCC2)n2cc(C(F)(F)F)ncc2=O)nc1 [Example 6, (S)-6-(2-(2-oxo-5-(trifluoromethyl)pyrazin-1(2H)-yl)-3-(tetrahydro-2H-pyran-4-yl)propanamido)nicotinic acid]
		3300	CC(C)C[C@@H](C(=O)Nc1ccc(C(=O)O)cn1)n1cc(C(F)(F)F)ncc1=O [Example 7, (S)-6-(4-methyl-2-(2-oxo-5-(trifluoromethyl)pyrazin-1(2H)-yl)pentanamido)nicotinic acid]
		2300	O=C(O)Cc1ccc(NC(=O)[C@H](CC2CCCC2)n2cc(C(F)(F)F)ncc2=O)nc1 [Example 8, (S)-2-(6-(3-cyclopentyl-2-(2-oxo-5-(trifluoromethyl)pyrazin-1(2H)-yl)propanamido)pyridin-3-yl)acetic acid]
		1250	O=C(O)c1ccc(NC(=O)[C@H](CC2CCC2)n2cc(C(F)(F)F)ncc2=O)nc1 [Example 9, (S)-6-(3-cyclobutyl-2-(2-oxo-5-(trifluoromethyl)pyrazin-1(2H)-yl)propanamido)nicotinic acid]
